In patent US20170087106A1, “Method for supporting gut health” (priority 2015, published 2017):

What was measured:
Assay type in all cases: in vivo
[1] = system: ICAM-1; test: TNBS rat colitis: colonic ICAM-1 mRNA by real-time PCR; settings: colon, oral daily 7 days, mean ± SEM
Procedure: (§1) Female Wistar rats (180-200 g) were randomly assigned to nine groups (n=10). Three groups received treatment with CaPyr (20, 40 and 100 mg/kg); other three received treatment with ethyl pyruvate (20, 40 and 100 mg/kg); and the remaining was treated with sulphasalazine (30 mg/kg). All compounds were dissolved in 1 ml of carboxymethylcellulose (0.2%) in water solution, and administered daily by oral gavage. An untreated TNBS control group and a non-colitic group were included for reference, which received the vehicle used to administer the test compounds. Colonic inflammation was induced in control and treated groups as generally described (see Galvez et al. 2014). Briefly, rats were fasted overnight, anesthetized with halothane and given TNBS dissolved in 0.25 ml of 50% ethanol (v/v) by means of a Teflon cannula inserted 8 cm through the anus. During and after TNBS administration, the rats were kept in a head-down position until they recovered from anaesthesia, and then returned to their cages. Rats from the non-colitic group were administered intracolonically 0.25 ml of phosphate buffered saline instead of TNBS. The treatments were given from the day of the colitis induction until the sacrifice of the rats with an overdose of halothane, seven days later. Animal body weights, occurrence of diarrhoea, and water and food intake were recorded daily throughout all the experiments. Once the animals were sacrificed, the colon was removed aseptically and placed on an ice-cold plate, longitudinally opened and cleaned from their luminal contents with cold saline. Afterwards, it was weighed and its length measured under a constant load (2 g). Each colon was scored for macroscopically visible damage on a 0-10 scale by two observers unaware of the experiment, according to the criteria described before (see Galvez et al. 2014). Colon samples (0.5 cm^2) containing all the layers were taken from a region of the inflamed colon corresponding to the adjacent segment to the gross macroscopic damage and were fixed in 4% buffered formaldehyde for the histological studies. Equivalent colonic segments were also obtained from the non-colitic group. The colon was subsequently minced, aliquoted and kept frozen at −80° C. until biochemical determinations and RNA extraction was performed.
(§2) Analysis of gene expression in colonic samples by RT-qPCR Total RNA from colonic samples was isolated using Trizol® (Thermo Fisher Scientific Inc., Waltham, Mass. USA) following the manufacturer's protocol. All RNA samples were quantified with the Thermo Scientific NanoDrop™ 2000 Spectrophotometer (Thermo Fisher Scientific Inc., Waltham, Mass. USA) and […] of RNA were reverse transcribed using oligo(dT) primers (Promega, Southampton, UK).
(§3) Real time quantitative PCR amplification and detection was performed on optical-grade 48 well plates in an Eco™ Real-Time PCR System (Illumina, CA, USA) with 20 ng of cDNA, the KAPA SYBR® FAST qPCR Master Mix (Illumina, CA, USA) and specific primers at their annealing temperature (Ta). To normalize mRNA expression, the expression of the housekeeping gene, glyceraldehyde-3-phosphate dehydrogenase (GAPDH) was measured. The mRNA relative quantitation was calculated using the ΔΔCt method.

[2] = system: TNBS experimental rat colitis; test: TNBS rat colitis: microscopic (histological) damage score; settings: oral daily 7 days, mean ± SEM
Procedure: as §1
Cross-sections were selected and embedded in paraffin. Full-thickness sections of 5 μm were obtained at different levels and stained with haematoxylin and eosin. The histological damage was evaluated by a pathologist observer, who was blinded to the experimental groups, according to the criteria previously described by Galvez.

[3] = system: MCP-1; test: TNBS rat colitis: colonic MCP-1 mRNA by real-time PCR; settings: colon, oral daily 7 days, mean ± SEM
Procedure: as §1, §2, §3

[4] = system: TNBS experimental rat colitis; test: TNBS rat colitis: colonic macroscopic damage score and weight/length ratio; settings: for Damage Score (0-10) / Weight/length: TNBS rat colitis, oral daily 7 days, mean ± SEM; for Weight/length: colon
Procedure: as §1

[5] = system: IL-17; test: TNBS rat colitis: colonic IL-17 mRNA by real-time PCR; settings: colon, oral daily 7 days, mean ± SEM
Procedure: as §1, §2, §3

[6] = system: TFF-3; test: TNBS rat colitis: colonic TFF-3 mRNA by real-time PCR; settings: colon, oral daily 7 days, mean ± SEM
Procedure: as §1, §2, §3

[7] = system: CINC-1; test: TNBS rat colitis: colonic CINC-1 mRNA by real-time PCR; settings: colon, oral daily 7 days, mean ± SEM
Procedure: as §1, §2, §3

[8] = system: IL-1β; test: TNBS rat colitis: colonic IL-1β mRNA by real-time PCR; settings: colon, oral daily 7 days, mean ± SEM
Procedure: as §1, §2, §3

[9] = system: iNOS; test: TNBS rat colitis: colonic iNOS mRNA by real-time PCR; settings: colon, oral daily 7 days, mean ± SEM
Procedure: as §1, §2, §3

[10] = system: glutathione (GSH); test: TNBS rat colitis: colonic total glutathione (GSH) content; settings: colonic tissue, oral daily 7 days, mean ± SEM
Procedure: as §1
(§4) Myeloperoxidase (MPO) activity was measured according to the technique described previously (Krawiszet al., 1984); the results were expressed as MPO units per gram of wet tissue; one unit of MPO activity was defined as that degrading 1 μmol hydrogen peroxide/min at 25° C. Total glutathione (GSH) content was quantified with the recycling assay described by Anderson (1985), and the results were expressed as nmol/g wet tissue. In order to evaluate tissue IL-1β levels, the colonic samples were homogenized in phosphate buffered saline supplemented with 0.1% sodium dodecyl sulfate (SDS), 0.1% sodium deoxycholate, 1% Triton X-100 and protease and phosphatase inhibitors (aprotinin, leupeptin and phenylmethylsulfonyl fluoride). The cytokine was quantified by enzyme-linked immunoabsorbent assay (R&D Systems Inc., Minneapolis, Minn., USA) and the results were expressed as pg/g wet tissue.

[11] = system: IL-6; test: TNBS rat colitis: colonic IL-6 mRNA by real-time PCR; settings: colon, oral daily 7 days, mean ± SEM
Procedure: as §1, §2, §3

[12] = system: IL-1β; test: TNBS rat colitis: colonic IL-1β by ELISA; settings: colonic tissue, oral daily 7 days, mean ± SEM
Procedure: as §1, §4

[13] = system: IL-12; test: TNBS rat colitis: colonic IL-12 mRNA by real-time PCR; settings: colon, oral daily 7 days, mean ± SEM
Procedure: as §1, §2, §3

[14] = system: IL-23; test: TNBS rat colitis: colonic IL-23 mRNA by real-time PCR; settings: colon, oral daily 7 days, mean ± SEM
Procedure: as §1, §2, §3

[15] = system: MUC-2; test: TNBS rat colitis: colonic MUC-2 mRNA by real-time PCR; settings: colon, oral daily 7 days, mean ± SEM
Procedure: as §1, §2, §3

[16] = system: myeloperoxidase (MPO); test: TNBS rat colitis: colonic myeloperoxidase (MPO) activity; settings: colonic tissue, oral daily 7 days, mean ± SEM
Procedure: as §1, §4

CCOC(=O)C(C)=O [EtPyr, ethyl pyruvate]
ICAM-1 mRNA expression ([1]; 20 mg/kg): 1.39 ± 0.19 fold increase
ICAM-1 mRNA expression ([1]; 40 mg/kg): 2.27 ± 0.38 fold increase
ICAM-1 mRNA expression ([1]; 100 mg/kg): 2.39 ± 0.50 fold increase
Microscopic Damage Score (0-59) ([2]; 20 mg/kg): 25 ± 3
Microscopic Damage Score (0-59) ([2]; 40 mg/kg): 17 ± 3
Microscopic Damage Score (0-59) ([2]; 100 mg/kg): 23 ± 3
MCP-1 mRNA expression ([3]; 20 mg/kg): 1.23 ± 0.37 fold increase
MCP-1 mRNA expression ([3]; 40 mg/kg): 1.85 ± 0.29 fold increase
MCP-1 mRNA expression ([3]; 100 mg/kg): 2.21 ± 0.29 fold increase
Damage Score (0-10) ([4]; 20 mg/kg): 6.6 ± 0.6
Damage Score (0-10) ([4]; 40 mg/kg): 6.1 ± 0.4
Damage Score (0-10) ([4]; 100 mg/kg): 6.0 ± 0.5
Weight/length ([4]; 20 mg/kg): 185.4 ± 31.1 mg/cm
Weight/length ([4]; 40 mg/kg): 172.0 ± 15.8 mg/cm
Weight/length ([4]; 100 mg/kg): 186.4 ± 13.2 mg/cm
effect in TNBS-induced colitis (in words) ([4]; rats, 20, 40 and 100 mg/kg body weight, 7 days oral treatment): intestinal anti-inflammatory effects
IL-17 mRNA expression ([5]; 20 mg/kg): 1.17 ± 0.27 fold increase
IL-17 mRNA expression ([5]; 40 mg/kg): 1.74 ± 0.33 fold increase
IL-17 mRNA expression ([5]; 100 mg/kg): 2.34 ± 0.30 fold increase
TFF-3 mRNA expression ([6]; 20 mg/kg): 0.59 ± 0.16 fold increase
TFF-3 mRNA expression ([6]; 40 mg/kg): 1.01 ± 0.05 fold increase
TFF-3 mRNA expression ([6]; 100 mg/kg): 0.96 ± 0.11 fold increase
CINC-1 mRNA expression ([7]; 20 mg/kg): 4.40 ± 0.65 fold increase
CINC-1 mRNA expression ([7]; 40 mg/kg): 4.40 ± 0.57 fold increase
CINC-1 mRNA expression ([7]; 100 mg/kg): 4.40 ± 0.90 fold increase
IL-1β mRNA expression ([8]; 20 mg/kg): 6.90 ± 1.50 fold increase
IL-1β mRNA expression ([8]; 40 mg/kg): 7.20 ± 1.20 fold increase
IL-1β mRNA expression ([8]; 100 mg/kg): 10.21 ± 1.50 fold increase
iNOS mRNA expression ([9]; 20 mg/kg): 16.17 ± 2.75 fold increase
iNOS mRNA expression ([9]; 40 mg/kg): 12.20 ± 1.53 fold increase
iNOS mRNA expression ([9]; 100 mg/kg): 22.88 ± 2.14 fold increase
GSH ([10]; 20 mg/kg): 560 ± 74 nmol/g tissue
GSH ([10]; 40 mg/kg): 715 ± 88 nmol/g tissue
GSH ([10]; 100 mg/kg): 870 ± 124 nmol/g tissue
IL-6 mRNA expression ([11]; 20 mg/kg): 5.60 ± 1.41 fold increase
IL-6 mRNA expression ([11]; 40 mg/kg): 5.60 ± 1.20 fold increase
IL-6 mRNA expression ([11]; 100 mg/kg): 6.00 ± 1.01 fold increase
IL-1β (ELISA) ([12]; 20 mg/kg): 975.0 ± 90.1 ng/g tissue
IL-1β (ELISA) ([12]; 40 mg/kg): 1140.0 ± 150.1 ng/g tissue
IL-1β (ELISA) ([12]; 100 mg/kg): 975.0 ± 211.7 ng/g tissue
IL-12 mRNA expression ([13]; 20 mg/kg): 1.09 ± 0.13 fold increase
IL-12 mRNA expression ([13]; 40 mg/kg): 1.81 ± 0.48 fold increase
IL-12 mRNA expression ([13]; 100 mg/kg): 1.62 ± 0.37 fold increase
IL-23 mRNA expression ([14]; 20 mg/kg): 1.68 ± 0.39 fold increase
IL-23 mRNA expression ([14]; 40 mg/kg): 1.56 ± 0.27 fold increase
IL-23 mRNA expression ([14]; 100 mg/kg): 1.80 ± 0.21 fold increase
MUC-2 mRNA expression ([15]; 20 mg/kg): 0.39 ± 0.09 fold increase
MUC-2 mRNA expression ([15]; 40 mg/kg): 0.70 ± 0.08 fold increase
MUC-2 mRNA expression ([15]; 100 mg/kg): 0.50 ± 0.11 fold increase
MPO ([16]; 20 mg/kg): 58.1 ± 11.9 mU/g tissue
MPO ([16]; 40 mg/kg): 61.5 ± 9.8 mU/g tissue
MPO ([16]; 100 mg/kg): 54.7 ± 10.8 mU/g tissue
